From ChEMBL document CHEMBL1201862, “PubChem BioAssay data set” (2004) come the findings set out here.

Test systems include BT-549; HCC 2998; HCT-116; HCT-15; HL-60; Hs-578T; KM12; NCI-H23; OVCAR-3; OVCAR-4; PC-3; RXF 393; SK-MEL-5; SK-OV-3; SNB-75; U-251; UACC-257; IGROV-1; MOLT-4; NCI-H522.
Assay in all cases: growth of human tumour cells (NCI), 48 h

Structures are written as SMILES.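 Following 48 hours of exposure in 96-well plates, responses at five concentrations were used to interpolate endpoints linearly. GI50 = concentration required for 50% inhibition of growth.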 Active and inactive are the calls of the source. Rule as the data show it: active = GI50 up to about 1.1 µM and inactive = higher. Where a SMILES comes first, the peptide text is derived from it. [ ]: non-standard residue; d: D form. The star is where a group is joined. Octanoyl = CCCCCCCC(=O)*; Aib = CC(C)(N)C(=O)O; tBu = CC(C)(C)*

`COc1ccc2oc(=N)c(C(=O)Nc3cccc4ccccc34)cc2c1`: the GI50 is 55.7 µM (inactive) with BT-549; 58.7 µM (inactive) with HCC 2998; 27.7 µM (inactive) with HCT-116; 1.61 µM in the experiment on HCT-15; 23.7 µM (inactive) in the experiment on HL-60; 30.2 µM (inactive) in the experiment on Hs-578T. For the same compound, the GI50 is 27.7 µM (inactive) in the experiment on KM12; 29.4 µM (inactive) in the experiment with NCI-H23; 10.4 µM (inactive) with OVCAR-3; 15.5 µM (inactive) in the experiment on OVCAR-4; 12.3 µM (inactive) with PC-3; 4.69 µM (inactive) with RXF 393. Also, the GI50 in the experiment on SK-MEL-5 was > 100 µM (inactive); with SK-OV-3, 15.5 µM (inactive); with SNB-75, 10.2 µM (inactive); in the experiment on U-251, 13 µM (inactive); with UACC-257 it was 32 µM (inactive).
With `O=C(O)c1cc(N(Cc2ccccc2O)Cc2cc(O)ccc2O)ccc1O` [LAVENDUSTIN A], the GI50 in the experiment with BT-549 was 6.21 µM (inactive); in the experiment with HCC 2998, > 100 µM (inactive); with HCT-116 it was > 100 µM (inactive); in the experiment with HCT-15, more than 100 µM; in the experiment on HL-60, > 100 µM (inactive); in the experiment on Hs-578T it was 19.8 µM (inactive). The GI50 in the experiment on IGROV-1, in the experiment on KM12, in the experiment with MOLT-4, in the experiment with NCI-H23, in the experiment with OVCAR-3 and with OVCAR-4 was > 100 µM (inactive) each time. The GI50 with PC-3 is 42.3 µM (inactive); in the experiment on RXF 393, > 100 µM (inactive); in the experiment with SK-MEL-5, > 100 µM (inactive); in the experiment with SK-OV-3, > 100 µM (inactive); in the experiment with SNB-75, > 10 µM (inactive); in the experiment with U-251, > 100 µM (inactive). Besides, in the experiment with UACC-257, the GI50 is > 100 µM (inactive).
In the case of `N#Cc1c(-c2ccc(F)cc2)c(-c2ccc(F)cc2)nn(CCO)c1=O`, the GI50 in the experiment with BT-549 was 0.879 µM (active); in the experiment on HCC 2998 it was 0.605 µM (active); in the experiment on HCT-116 it was 0.119 µM (active); in the experiment on HCT-15 it was 0.132 µM; with HL-60, 0.091 µM (active); in the experiment on Hs-578T, 0.885 µM (active). Further, the GI50 in the experiment on IGROV-1 was 0.155 µM (active); in the experiment with KM12, 0.126 µM (active); with MOLT-4, 0.242 µM (active); in the experiment on NCI-H23, 0.948 µM (active); in the experiment with OVCAR-3 it was 0.242 µM (active); in the experiment on OVCAR-4, 1.32 µM (inactive). Further, the GI50 in the experiment on PC-3 is 0.416 µM (active); in the experiment with RXF 393, 0.378 µM (active); with SK-MEL-5 it was 0.175 µM (active); in the experiment with SK-OV-3 it was 0.288 µM (active); in the experiment with SNB-75, 0.183 µM (active); in the experiment with U-251, 0.178 µM (active). Moreover, the GI50 with UACC-257 was 1.19 µM (inactive).
As to `Cc1cc(=O)oc2c3c(ccc12)OC(c1ccc(Br)cc1)CC3=O` (configuration not stated), the GI50 was 3.03 µM (inactive) in the experiment on BT-549; 14.6 µM (inactive) in the experiment on HCC 2998; 10.3 µM (inactive) in the experiment on HCT-116; 7.48 µM with HCT-15; 2.56 µM (inactive) with Hs-578T; 10.7 µM (inactive) in the experiment with IGROV-1. Further, the GI50 in the experiment on KM12 was 13.9 µM (inactive); in the experiment on MOLT-4 it was 1.79 µM (inactive); in the experiment on NCI-H23, 12.1 µM (inactive); in the experiment with NCI-H522, 4.42 µM (inactive); in the experiment on OVCAR-3 it was 10.8 µM (inactive); in the experiment on OVCAR-4 it was 26.5 µM (inactive). Moreover, the GI50 was 6.25 µM (inactive) with PC-3; 11.6 µM (inactive) in the experiment on SK-MEL-5; 8.15 µM (inactive) in the experiment with SK-OV-3; 3.02 µM (inactive) in the experiment with SNB-75; 5.9 µM (inactive) in the experiment with U-251; 13.1 µM (inactive) in the experiment on UACC-257.
With `CCCCCCCC(=O)NC(C)(C)C(=O)NC(COC(C)(C)C)C(=O)NC(CC(C)C)C(=O)NC(C)(C)C(=O)NC(COC(C)(C)C)C(=O)NC(COC(C)(C)C)C(=O)NC(CC(C)C)C(=O)NC(C)(C)C(=O)NC(COC(C)(C)C)C(=O)NC(C(=O)NC(CC(C)C)C(=O)OC)C(C)CC` (configuration not stated) (Octanoyl-[Aib]S(tBu)L[Aib]S(tBu)S(tBu)L[Aib]S(tBu)IL-OMe; configuration not given here), the GI50 in the experiment on BT-549 was 5.38 µM (inactive); in the experiment with HCT-116 it was 7.18 µM (inactive); in the experiment on HCT-15, 8.13 µM; with HL-60, 6.46 µM (inactive); with Hs-578T, 8.85 µM (inactive); with IGROV-1, 5.7 µM (inactive). Further, the GI50 is 6.67 µM (inactive) in the experiment with KM12; 5.52 µM (inactive) in the experiment on MOLT-4; 4.7 µM (inactive) in the experiment on NCI-H23; 6.41 µM (inactive) in the experiment on NCI-H522; 4.85 µM (inactive) in the experiment on OVCAR-3; 8.63 µM (inactive) in the experiment on OVCAR-4. Also, the GI50 in the experiment on PC-3 is 4.23 µM (inactive); with RXF 393, 3.57 µM (inactive); in the experiment with SK-MEL-5, 6.22 µM (inactive); with SK-OV-3, 11.8 µM (inactive); in the experiment with SNB-75 it was 5.24 µM (inactive); with U-251, 5.24 µM (inactive). For the same compound, the GI50 with UACC-257 was 8.81 µM (inactive).
For the compound `O=C(CNc1ccccn1)Nn1cnc2ccc(S(=O)(=O)Nc3ccccn3)cc2c1=O`, the GI50 with BT-549 was > 100 µM (inactive); in the experiment on HCC 2998, > 100 µM (inactive); with HCT-116, > 100 µM (inactive); in the experiment with HCT-15, more than 100 µM; in the experiment with HL-60 it was > 100 µM (inactive); in the experiment on Hs-578T, > 100 µM (inactive). Further, the GI50 is 70.1 µM (inactive) in the experiment with IGROV-1; > 100 µM (inactive) in the experiment on KM12; > 100 µM (inactive) in the experiment with MOLT-4; > 100 µM (inactive) in the experiment on NCI-H23; > 100 µM (inactive) in the experiment on NCI-H522; > 100 µM (inactive) in the experiment with OVCAR-3. The GI50 in the experiment with OVCAR-4, in the experiment on PC-3, with SK-OV-3, in the experiment with SNB-75, in the experiment with U-251 and with UACC-257 was > 100 µM (inactive) each time.
For `CC(C)(C)n1c(=O)[nH]n(C2NN=Cc3cccc4cccc2c34)c1=O` (configuration not stated), the GI50 is 21.9 µM (inactive) in the experiment with BT-549; 39.5 µM (inactive) in the experiment on HCC 2998; 38.5 µM (inactive) in the experiment on HCT-116; 31.3 µM in the experiment on HCT-15; 12.9 µM (inactive) with HL-60; 39.4 µM (inactive) with Hs-578T. Besides, the GI50 is 34 µM (inactive) with KM12; 20.8 µM (inactive) in the experiment on MOLT-4; 31.6 µM (inactive) with NCI-H23; 51.9 µM (inactive) in the experiment with OVCAR-3; 42.6 µM (inactive) with OVCAR-4; 31.8 µM (inactive) in the experiment on PC-3. Besides, the GI50 was 10.9 µM (inactive) with RXF 393; 50 µM (inactive) in the experiment on SK-OV-3; 21.9 µM (inactive) in the experiment with SNB-75; 44.2 µM (inactive) in the experiment with U-251; 54.3 µM (inactive) with UACC-257.
Turning to `O=C(CSc1n[nH]c(=O)[nH]c1=O)NNC(=O)c1cccc2nc3ccccc3nc12`, the GI50 was 29.2 µM (inactive) in the experiment with BT-549; 40.8 µM (inactive) in the experiment with HCC 2998; > 100 µM (inactive) in the experiment with HCT-116; 72.8 µM with HCT-15; > 100 µM (inactive) with HL-60; 40.4 µM (inactive) in the experiment with Hs-578T. Besides, the GI50 with IGROV-1 was > 100 µM (inactive); in the experiment on KM12, 79.3 µM (inactive); in the experiment on MOLT-4, > 100 µM (inactive); with NCI-H23, 35.9 µM (inactive); in the experiment with OVCAR-3, > 100 µM (inactive); with OVCAR-4 it was > 100 µM (inactive). For the same compound, the GI50 in the experiment with PC-3 was > 100 µM (inactive); with RXF 393, > 100 µM (inactive); in the experiment on SK-MEL-5, 22 µM (inactive); with SK-OV-3, > 100 µM (inactive); in the experiment on U-251, > 100 µM (inactive); in the experiment with UACC-257, 58.7 µM (inactive).
Take `CN1C(=O)c2ccccc2NC(=O)C12O[C@@H]2c1ccccc1` (some centres not stated): the GI50 in the experiment with BT-549 was > 100 µM (inactive); with HCC 2998 it was > 100 µM (inactive); in the experiment with HCT-116, > 100 µM (inactive); in the experiment on HCT-15, more than 10 µM; in the experiment with HL-60, > 100 µM (inactive); with Hs-578T, > 100 µM (inactive). For the same compound, the GI50 with IGROV-1, in the experiment with KM12, in the experiment with MOLT-4, with NCI-H23, with NCI-H522 and in the experiment on OVCAR-3 was > 100 µM (inactive) in each case. The GI50 with OVCAR-4 is > 100 µM (inactive); in the experiment with PC-3 it was > 100 µM (inactive); in the experiment on SK-MEL-5 it was > 100 µM (inactive); in the experiment on SNB-75 it was 62.8 µM (inactive); in the experiment on U-251, > 100 µM (inactive); in the experiment on UACC-257, > 100 µM (inactive).
With `COC(=O)[C@H](Cc1ccccc1)NC(=O)[C@H](Cc1ccccc1)NC(=O)[C@@H]1CCCN1C(=O)N[C@H]1C2C=CC(C2)C1C(=O)N1CCC[C@H]1C(=O)N[C@@H](C)C(=O)N[C@H](C(=O)OC)C(C)C` (some centres not stated), the GI50 in the experiment with BT-549 was 40.9 µM (inactive); in the experiment on HCT-116 it was > 100 µM (inactive); with HCT-15, more than 100 µM; with HL-60, 35.7 µM (inactive); in the experiment on Hs-578T, 59.6 µM (inactive); with IGROV-1, 38 µM (inactive). Also, the GI50 is > 100 µM (inactive) in the experiment with KM12; 29.4 µM (inactive) with MOLT-4; > 100 µM (inactive) with NCI-H23; 56.5 µM (inactive) in the experiment with NCI-H522; > 100 µM (inactive) in the experiment on OVCAR-3; > 100 µM (inactive) in the experiment on OVCAR-4. For the same compound, the GI50 with PC-3 was > 100 µM (inactive); with RXF 393 it was > 100 µM (inactive); with SK-MEL-5, > 100 µM (inactive); in the experiment on SK-OV-3 it was > 100 µM (inactive); in the experiment with SNB-75, > 100 µM (inactive); in the experiment on U-251, 70.3 µM (inactive). The GI50 in the experiment on UACC-257 was > 100 µM (inactive).
